Results on one compound are retold here after US20210177879A1, “VITAMIN D RECEPTOR AGONIST” (Guanghzou University of Chinese Medicine, priority 2018, published 2021).

Common to all, as to format: in vivo, Balb/c mice
In one test the test system is intestinal permeability. Nature of the test: Determination of intestinal permeability in serum with FITC-dextran. As to conditions: after third stage of modeling; monotropein high and low doses, 5-ASA 100 mg/kg. The protocol:
Experimental method: 90 Balb/c mice of 6-8 weeks were purchased from the Experimental Animal Center in Guangzhou University of Chinese Medicine, weighed about 18-22 g, and subjected to adaptive feeding for 10 days. Modeling was divided into three stages. In the first stage, except for the normal group of animals being given saline injection, each of the other animals were intraperitoneally injected with a carcinogen AOM (10 mg/kg), and given free access to 2% DSS water from the next day for 7 days, and then given access to replaced regular drinking water for 14 days. In the second stage, the animals were given free access to 2% DSS water for 10 days, and then given access to replaced regular drinking water for 14 days. In the third stage, the animals were given free access to 2% DSS water for 10 days, and then given access to replaced regular drinking water for 11 days. […] The diet, water drinking and body weights of the animals were recorded daily and DAI scores were made, and the animals were killed and harvested at the 10th week. […] 25 μl of serum was taken and added with 100 μl PBS, and determined on a microplate reader for its fluorescence intensity, where the wavelength of the exciting light was 480 nm, and the wavelength of the emitting light was 520 nm. A standard curve was made and the sample concentration was calculated.

Test [1] deals with peripheral blood macrophages. Briefly: Typing of peripheral blood macrophages by flow cytometry. As to conditions: compared with normal group. How it is done:
Experimental method: 90 Balb/c mice of 6-8 weeks were purchased from the Experimental Animal Center in Guangzhou University of Chinese Medicine, weighed about 18-22 g, and subjected to adaptive feeding for 10 days. Modeling was divided into three stages. In the first stage, except for the normal group of animals being given saline injection, each of the other animals were intraperitoneally injected with a carcinogen AOM (10 mg/kg), and given free access to 2% DSS water from the next day for 7 days, and then given access to replaced regular drinking water for 14 days. In the second stage, the animals were given free access to 2% DSS water for 10 days, and then given access to replaced regular drinking water for 14 days. In the third stage, the animals were given free access to 2% DSS water for 10 days, and then given access to replaced regular drinking water for 11 days. The normal group was given access to regular drinking water throughout the experiment. The diet, water drinking and body weights of the animals were recorded daily and DAI scores were made, and the animals were killed and harvested at the 10th week. In this experiment, the animals were divided into groups and administrated on the first day of a modeling period of the second stage, and the total number of groups was set to 5 groups. […] Dosing was conducted daily until dissection. […]

Test [2] relates to AOM/DSS colon cancer model. Briefly: AOM/DSS colon cancer model, Experiment 1 (body weight, anal prolapse, organ coefficient, colon and tumor indexes). The protocol: Experimental method: 90 Balb/c mice of 6-8 weeks were purchased from the Experimental Animal Center in Guangzhou University of Chinese Medicine, weighed about 18-22 g, and subjected to adaptive feeding for 10 days. Modeling was divided into three stages. In the first stage, except for the normal group of animals being given saline injection, each of the other animals were intraperitoneally injected with a carcinogen AOM (10 mg/kg), and given free access to 2% DSS water from the next day for 7 days, and then given access to replaced regular drinking water for 14 days. In the second stage, the animals were given free access to 2% DSS water for 10 days, and then given access to replaced regular drinking water for 14 days. In the third stage, the animals were given free access to 2% DSS water for 10 days, and then given access to replaced regular drinking water for 11 days. The normal group was given access to regular drinking water throughout the experiment. The diet, water drinking and body weights of the animals were recorded daily and DAI scores were made, and the animals were killed and harvested at the 10th week. In this experiment, the animals were divided into groups and administrated on the first day of a modeling period of the second stage, and the total number of groups was set to 5 groups. The first group was a blank control group (Normal), in which a total of 12 animals were given access to drinking water by gavage; the second group was a model group (AOM/DSS), in which a total of 22 animals were given access to drinking water by gavage; the third group was a positive drug control group (5-ASA+AOM/DSS), in which a total of 22 animals were given access to 100 mg/kg of mesalazine (5-ASA) by gavage; and the fourth and fifth groups were monotropein-intervening groups (Mo+AOM/DSS), which were a high dose of 8 mg/kg and a low dose of 2 mg/kg, respectively, with 17 animals in each group. Dosing was conducted daily until dissection.
(1) The calculation formula of a DAI score: DAI value=(score of weight loss+score of stool trait+score of blood in stool)/3.
The animals were anesthetized and harvested, and the liver, spleen, thymus and testis were weighed to calculate the organ coefficient; the colon tissue was taken, measured with a ruler for the length, and measured with a vernier caliper for the thickness, and the number and size of tumors and degree of colonic ulceration and adhesion were recorded; respective tissues were cut into small pieces and fixed, and the remaining tissues were frozen and stored; and the fixed tissues were used for HE staining and immunohistochemistry.

Another test deals with IL-6, IL-10, IL-1β. Nature of the test: Determination of cytokines in intestinal tumor tissues by Elisa. To be noted: vs model group; high-dose monotropein (8 mg/kg) and positive drug 5-ASA (100 mg/kg). The protocol: Experimental method: 90 Balb/c mice of 6-8 weeks were purchased from the Experimental Animal Center in Guangzhou University of Chinese Medicine, weighed about 18-22 g, and subjected to adaptive feeding for 10 days. Modeling was divided into three stages. In the first stage, except for the normal group of animals being given saline injection, each of the other animals were intraperitoneally injected with a carcinogen AOM (10 mg/kg), and given free access to 2% DSS water from the next day for 7 days, and then given access to replaced regular drinking water for 14 days. In the second stage, the animals were given free access to 2% DSS water for 10 days, and then given access to replaced regular drinking water for 14 days. In the third stage, the animals were given free access to 2% DSS water for 10 days, and then given access to replaced regular drinking water for 11 days. The normal group was given access to regular drinking water throughout the experiment. The diet, water drinking and body weights of the animals were recorded daily and DAI scores were made, and the animals were killed and harvested at the 10th week. In this experiment, the animals were divided into groups and administrated on the first day of a modeling period of the second stage, and the total number of groups was set to 5 groups. […]
The intestinal tumor tissues frozen and stored at −80° C. were taken and homogenized, and the homogenate was determined with a BCA kit for the total protein concentration thereof. The homogenate was diluted by 20 times and then determined by Elisa method for cytokines: IL-6, IL-10, and IL-1β. […]

Consider `Nc1ccc(O)c(C(=O)O)c1` [5-ASA, mesalazine, reference compound], for which the “intestinal permeability (FITC-dextran in serum) vs model group” value in the test on intestinal permeability was “not statistically significant”. The “M1/M2 ratio of peripheral blood macrophages” value in test [1] is “significantly reduced”. Besides, the “spleen enlargement caused by AOM/DSS modeling (organ coefficient)” value in test [2] (monotropein high (8 mg/kg) and low (2 mg/kg) doses, 5-ASA 100 mg/kg) is recorded as “has no such effect”. Besides, the “anal prolapse occurrence at the third stage of modeling” value in test [2] (per group, monotropein 8 mg/kg and 2 mg/kg groups (17 animals each), 5-ASA 100 mg/kg (22 animals), gavage daily, model group 8-12) was 8-12 animals. In the test on IL-6, IL-10, IL-1β, the “level of IL-10 in tumor tissues” value is recorded as “no significant differences”.
